Assay results: ChEMBL document CHEMBL1201862, “PubChem BioAssay data set” (2004)
Active and inactive are the calls of the source.

How the values were obtained:
[1] = NIH-3T3 fibroblast cytotoxicity, dose response, cytotoxicity control, cell-based, fluorescence, Alamar Blue, secondary assay (AID 2327); assay type: functional;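 note: NIH-3T3 mouse fibroblasts cultured with fluconazole at 8 µg/mL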
[2] = cells; assay type: functional, cell-based
[3] = fluconazole-exposed Candida albicans growth modulators – fluorescence, retest, confirmation (AID 2467); assay type: functional, cell-based
[4] = cells; assay type: functional, cell-based; remark: listed apart in the source
[5] = molecular target: T1, Serine/threonine-protein phosphatase (Candida dubliniensis (strain CD36 / CBS 7987 / NCPF 3949 / NRRLY-17841) (Yeast), UniProt B9W6M3); experiment: blockers of CaCl2-induced CDRE-lacZ signaling – S. cerevisiae, luminescence, secondary, dose response (AID 2388); assay type: functional, cell-based;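 note: yeast reporter cells carrying a calcineurin-responsive lacZ construct stimulated with calcium chloride; luminescent beta-galactosidase reporter signal in whole cells rather than isolated phosphatase activity; potency for inhibition where a drop in reporter signal means calcineurin blockade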
T1 sequence (B9W6M3 whole entry): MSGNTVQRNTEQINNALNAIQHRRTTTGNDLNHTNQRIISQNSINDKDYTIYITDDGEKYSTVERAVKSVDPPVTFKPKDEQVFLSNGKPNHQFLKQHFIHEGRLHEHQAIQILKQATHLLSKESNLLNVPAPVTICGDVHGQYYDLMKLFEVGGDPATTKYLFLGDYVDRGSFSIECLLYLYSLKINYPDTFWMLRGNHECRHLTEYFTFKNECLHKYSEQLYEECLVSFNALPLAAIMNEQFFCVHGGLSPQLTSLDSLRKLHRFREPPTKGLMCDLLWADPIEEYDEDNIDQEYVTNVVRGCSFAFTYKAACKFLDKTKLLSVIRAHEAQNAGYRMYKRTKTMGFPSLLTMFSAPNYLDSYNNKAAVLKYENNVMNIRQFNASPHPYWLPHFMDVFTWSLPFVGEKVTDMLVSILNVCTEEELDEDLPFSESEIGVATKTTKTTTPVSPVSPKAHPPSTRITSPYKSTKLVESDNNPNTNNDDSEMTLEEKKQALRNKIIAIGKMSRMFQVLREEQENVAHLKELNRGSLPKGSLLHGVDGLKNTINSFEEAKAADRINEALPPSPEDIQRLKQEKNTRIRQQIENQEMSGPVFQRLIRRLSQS

[6] = system: INS1; experiment: INS-1E survival protection against cytokine death – cell-based, luminescence, retest, dose response (AID 449756); assay type: functional; conditions: Rattus norvegicus;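 note: cell death triggered by IL-1 beta plus TNF-alpha plus IFN-gamma mixture; protective hits raise ATP signal compared with cytokine alone wells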
[7] = molecular target: ATP-dependent molecular chaperone HSP82 (Candida albicans (strain WO-1) (Yeast), UniProt C4YTQ8); experiment: steroid-induced GRE reporter decrease in yeast – S. cerevisiae, luminescence, Hsp90 inhibitor project, dose response (AID 2400); assay type: functional, cell-based;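 note: beta-galactosidase luminescence from glucocorticoid response element reporter as proxy for Hsp90 function; inhibitor potency where signal loss means Hsp90 inhibition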
[8] = molecular target: Photoreceptor-specific nuclear receptor (Homo sapiens, UniProt Q9Y5X4); assay type: functional, cell-based;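 note: CHO-S cells with Gal4-NCOR and VP16-NR2E3 two-hybrid luciferase reporter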
[9] = Trypanosoma cruzi growth suppression in host cells – NIH3T3 host cells, beta-gal luminescence, confirmation (AID 2044); assay type: functional, cell-based;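 note: intracellular parasites grown in NIH/3T3 mouse fibroblasts as host cells; luminescent beta-galactosidase reporter signal from transgenic T. cruzi replicating inside host cells; inhibitors lower the luminescence signal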
[10] = NIH3T3 cell viability loss – ATP luminescence, mouse fibroblasts, counter-screen, dose response (AID 2010); assay type: functional, cell-based;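 note: cells exposed to compound for about 90 hours before reading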
[11] = system: Vero; experiment: viability loss in Vero cells – cell-based, plate reader, cherry-pick samples, cytotoxicity control, dose response (AID 687020); assay type: functional; conditions: Chlorocebus sabaeus
[12] = molecular target: Luciferin 4-monooxygenase (Photinus pyralis, UniProt P08659); experiment: inhibition of purified Photinus pyralis luciferase – biochemical, luminescence, dose response (AID 1891)
[13] = Luminescence Cell-Based Dose Confirmation HTS to Identify Inhibitors of Platelet Dense Granule Release. [Related pubchem assays: 1663 (Primary HTS), 1678 (Summary of Project)]; assay type: functional
[14] = blockers of HIV-1 envelope-mediated cell-cell fusion – cherry-pick, dose response (AID 652057); assay type: functional, cell-based
[15] = blockers of HIV-1 ZM109 envelope-driven cell-cell fusion – HeLa effector, CEM target cells, luciferase, cherry-pick, dose response (AID 652058); assay type: functional, cell-based;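 note: luciferase signal from HIV-1 Env mediated cell-cell fusion of effector and target cells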
[16] = off-target signal loss in HeLa-CEM21 co-culture – HeLa F-luc CTL cells, cherry-picked, counter-screen for HIV-1 Env fusion inhibitor project, dose response (AID 652040); assay type: functional, cell-based;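 note: potency for signal decrease marking cytotoxic or nonspecific inhibition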
[17] = HIV-1 AD8 envelope cell-cell fusion blockers – cherry-pick, dose response (AID 652062); assay type: functional, cell-based;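 note: luciferase signal from cell-cell fusion driven by HIV-1 clade B AD8 Env; potency is for inhibitors of fusion seen as a drop in luminescence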
[18] = molecular target: Cytochrome P450 2D6 (Homo sapiens, UniProt P10635);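 note: CYP2D6 member of a cytochrome P450 panel assay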
[19] = system: HEK293; experiment: cells; conditions: Homo sapiens
[20] = system: HEK293; experiment: cells; conditions: Homo sapiens; remark: listed apart in the source
[21] = molecular target: Beta-lactamase (Pseudomonas aeruginosa, UniProt Q79MP6);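 note: biochemical dose-response test of metallo-beta-lactamase enzyme inhibition, read out by epi-absorbance; purified recombinant IMP-1 metallo-beta-lactamase with nitrocefin as substrate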
[22] = molecular target: Beta-lactamase (Salmonella choleraesuis (strain SC-B67), UniProt Q5J463)
[23] = molecular target: Troponin, cardiac muscle (Homo sapiens, UniProt P19429+P45379+P63316); experiment: Fluorescence-based biochemical high throughput dose response assay for activators of the calcium sensitivity of cardiac Regulated Thin Filaments (RTF). [Related pubchem assays (depositor defined):AID493008, AID493018, AID504382, AID504383]; assay type: protein-complex assay
[24] = molecular target: T2, DNA repair and recombination protein RAD54-like (Homo sapiens, UniProt Q92698); experiment: RAD54 Holliday junction migration blockers – biochemical, fluorescence, cherry-picked samples, dose series, confirmation (AID 651657); assay type: functional
T2 sequence (Q92698 whole entry): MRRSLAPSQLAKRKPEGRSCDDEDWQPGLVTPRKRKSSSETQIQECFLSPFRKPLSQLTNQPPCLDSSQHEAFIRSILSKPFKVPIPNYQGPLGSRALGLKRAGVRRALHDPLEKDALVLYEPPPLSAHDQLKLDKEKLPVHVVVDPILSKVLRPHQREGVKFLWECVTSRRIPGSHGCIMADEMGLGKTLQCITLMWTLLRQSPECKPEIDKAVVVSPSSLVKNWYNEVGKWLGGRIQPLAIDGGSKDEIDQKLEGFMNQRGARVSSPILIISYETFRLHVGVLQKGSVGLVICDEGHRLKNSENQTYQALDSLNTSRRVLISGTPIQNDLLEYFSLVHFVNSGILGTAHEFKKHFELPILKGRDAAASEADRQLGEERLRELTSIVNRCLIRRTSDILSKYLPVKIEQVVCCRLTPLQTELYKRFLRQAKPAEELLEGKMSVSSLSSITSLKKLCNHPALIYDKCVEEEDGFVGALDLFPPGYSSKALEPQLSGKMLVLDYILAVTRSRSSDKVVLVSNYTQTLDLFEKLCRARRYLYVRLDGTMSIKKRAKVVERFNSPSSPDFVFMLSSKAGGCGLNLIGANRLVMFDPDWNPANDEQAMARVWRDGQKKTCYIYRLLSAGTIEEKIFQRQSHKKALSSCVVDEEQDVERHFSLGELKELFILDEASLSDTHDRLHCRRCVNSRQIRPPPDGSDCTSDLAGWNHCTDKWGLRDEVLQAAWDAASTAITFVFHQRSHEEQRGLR

[25] = molecular target: DNA repair protein RAD52 homolog (Homo sapiens, UniProt P43351); assay type: functional, biochemical
[26] = molecular target: T3, Scavenger receptor class B member 1 (Mus musculus, UniProt Q61009); experiment: blockers of DiI-HDL lipid transfer via SR-BI – cell-based, ldlA[mSR-BI] CHO, DiI fluorescence, dry powder, set 10, dose response (AID 624029); assay type: functional
T3 sequence (Q61009 whole entry): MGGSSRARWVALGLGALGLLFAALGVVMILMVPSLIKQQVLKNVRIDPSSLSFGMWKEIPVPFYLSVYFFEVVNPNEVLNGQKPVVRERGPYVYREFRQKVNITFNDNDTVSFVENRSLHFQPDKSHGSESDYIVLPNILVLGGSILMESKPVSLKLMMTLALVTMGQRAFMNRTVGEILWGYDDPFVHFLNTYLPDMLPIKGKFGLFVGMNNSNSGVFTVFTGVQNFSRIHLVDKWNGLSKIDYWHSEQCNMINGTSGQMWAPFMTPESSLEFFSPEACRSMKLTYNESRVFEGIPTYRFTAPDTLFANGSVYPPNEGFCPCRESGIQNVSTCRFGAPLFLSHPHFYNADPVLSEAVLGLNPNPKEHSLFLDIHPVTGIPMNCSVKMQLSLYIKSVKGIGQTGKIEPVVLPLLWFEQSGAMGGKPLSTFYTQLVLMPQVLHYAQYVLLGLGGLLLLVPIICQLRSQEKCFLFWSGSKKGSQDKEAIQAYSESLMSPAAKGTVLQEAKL

Sequence of DNA repair protein RAD52 homolog (P43351 whole entry): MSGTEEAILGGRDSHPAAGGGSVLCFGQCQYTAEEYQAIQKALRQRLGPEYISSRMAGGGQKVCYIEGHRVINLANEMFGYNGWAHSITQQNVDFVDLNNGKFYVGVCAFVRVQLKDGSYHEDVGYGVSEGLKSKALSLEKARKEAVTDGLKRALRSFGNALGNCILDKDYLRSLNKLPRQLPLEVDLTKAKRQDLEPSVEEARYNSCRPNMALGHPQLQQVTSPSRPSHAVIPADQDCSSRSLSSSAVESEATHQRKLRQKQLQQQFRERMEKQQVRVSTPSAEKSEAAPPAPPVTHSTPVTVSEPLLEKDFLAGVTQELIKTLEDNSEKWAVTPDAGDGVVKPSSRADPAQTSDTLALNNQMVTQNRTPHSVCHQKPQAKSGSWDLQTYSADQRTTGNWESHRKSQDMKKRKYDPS
Sequence of Luciferin 4-monooxygenase (P08659 whole entry): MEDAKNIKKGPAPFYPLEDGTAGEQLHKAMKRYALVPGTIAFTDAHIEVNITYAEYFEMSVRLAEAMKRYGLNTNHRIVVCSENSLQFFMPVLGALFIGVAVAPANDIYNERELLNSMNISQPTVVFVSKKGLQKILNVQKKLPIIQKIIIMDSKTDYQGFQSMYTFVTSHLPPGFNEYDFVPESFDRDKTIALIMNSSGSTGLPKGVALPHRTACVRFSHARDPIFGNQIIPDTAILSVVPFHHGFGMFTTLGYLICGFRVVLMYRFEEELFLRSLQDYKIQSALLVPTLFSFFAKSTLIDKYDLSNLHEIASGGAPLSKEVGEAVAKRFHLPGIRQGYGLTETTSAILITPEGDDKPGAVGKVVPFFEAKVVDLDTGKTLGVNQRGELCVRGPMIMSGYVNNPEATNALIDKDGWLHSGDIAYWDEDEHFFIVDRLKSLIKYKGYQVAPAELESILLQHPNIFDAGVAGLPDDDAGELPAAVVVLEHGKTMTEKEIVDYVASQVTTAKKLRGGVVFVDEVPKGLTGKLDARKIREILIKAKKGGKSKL
Sequence of Beta-lactamase (Salmonella choleraesuis (strain SC-B67), UniProt Q5J463) (Q5J463 whole entry): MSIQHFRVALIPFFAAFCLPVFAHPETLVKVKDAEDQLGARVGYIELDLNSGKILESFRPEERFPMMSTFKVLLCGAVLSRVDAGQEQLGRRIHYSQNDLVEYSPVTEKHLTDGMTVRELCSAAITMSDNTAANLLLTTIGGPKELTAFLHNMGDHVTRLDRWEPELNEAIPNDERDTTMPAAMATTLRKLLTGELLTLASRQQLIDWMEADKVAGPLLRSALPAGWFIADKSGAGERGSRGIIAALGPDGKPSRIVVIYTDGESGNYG
Sequence of Beta-lactamase (Pseudomonas aeruginosa, UniProt Q79MP6) (Q79MP6 whole entry): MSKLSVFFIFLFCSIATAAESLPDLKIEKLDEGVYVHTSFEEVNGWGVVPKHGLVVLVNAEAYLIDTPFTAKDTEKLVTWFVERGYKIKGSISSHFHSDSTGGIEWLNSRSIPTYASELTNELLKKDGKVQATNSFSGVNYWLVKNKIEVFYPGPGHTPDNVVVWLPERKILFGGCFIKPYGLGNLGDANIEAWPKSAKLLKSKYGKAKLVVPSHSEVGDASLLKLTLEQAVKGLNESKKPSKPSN
Sequence of Cytochrome P450 2D6 (P10635 whole entry): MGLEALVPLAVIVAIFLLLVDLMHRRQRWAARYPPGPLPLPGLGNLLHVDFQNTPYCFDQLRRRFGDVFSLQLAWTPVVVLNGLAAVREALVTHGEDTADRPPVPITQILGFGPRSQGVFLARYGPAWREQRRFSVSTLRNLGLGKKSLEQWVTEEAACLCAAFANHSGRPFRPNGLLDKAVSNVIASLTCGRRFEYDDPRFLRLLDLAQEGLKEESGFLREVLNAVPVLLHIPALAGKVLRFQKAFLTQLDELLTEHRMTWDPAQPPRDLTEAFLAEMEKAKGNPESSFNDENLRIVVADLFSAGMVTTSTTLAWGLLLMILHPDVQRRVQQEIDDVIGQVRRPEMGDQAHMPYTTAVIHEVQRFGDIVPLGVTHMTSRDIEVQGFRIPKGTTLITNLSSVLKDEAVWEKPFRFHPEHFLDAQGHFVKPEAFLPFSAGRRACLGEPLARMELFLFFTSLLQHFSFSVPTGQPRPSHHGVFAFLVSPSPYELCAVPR
Sequence of ATP-dependent molecular chaperone HSP82 (C4YTQ8 whole entry, the tested form may be a part): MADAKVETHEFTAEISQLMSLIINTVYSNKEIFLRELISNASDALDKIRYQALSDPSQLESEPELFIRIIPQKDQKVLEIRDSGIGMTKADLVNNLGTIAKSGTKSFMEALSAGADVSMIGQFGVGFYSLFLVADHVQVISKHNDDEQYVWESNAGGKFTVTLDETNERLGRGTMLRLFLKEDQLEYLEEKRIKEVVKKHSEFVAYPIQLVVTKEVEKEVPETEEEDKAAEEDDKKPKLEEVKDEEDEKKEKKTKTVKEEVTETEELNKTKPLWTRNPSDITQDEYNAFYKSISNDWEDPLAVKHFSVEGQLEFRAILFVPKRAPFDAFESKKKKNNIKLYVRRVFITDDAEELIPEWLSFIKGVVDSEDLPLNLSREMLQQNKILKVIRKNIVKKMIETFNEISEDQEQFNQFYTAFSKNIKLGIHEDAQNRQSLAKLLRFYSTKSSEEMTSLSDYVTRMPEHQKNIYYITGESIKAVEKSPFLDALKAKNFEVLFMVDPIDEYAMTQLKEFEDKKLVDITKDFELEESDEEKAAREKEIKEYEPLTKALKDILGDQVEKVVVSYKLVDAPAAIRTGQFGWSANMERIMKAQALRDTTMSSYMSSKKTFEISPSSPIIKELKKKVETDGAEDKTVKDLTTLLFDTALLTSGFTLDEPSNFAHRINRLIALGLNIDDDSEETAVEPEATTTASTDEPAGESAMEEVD
Sequence of Photoreceptor-specific nuclear receptor (Q9Y5X4 whole entry, the tested form may be a part): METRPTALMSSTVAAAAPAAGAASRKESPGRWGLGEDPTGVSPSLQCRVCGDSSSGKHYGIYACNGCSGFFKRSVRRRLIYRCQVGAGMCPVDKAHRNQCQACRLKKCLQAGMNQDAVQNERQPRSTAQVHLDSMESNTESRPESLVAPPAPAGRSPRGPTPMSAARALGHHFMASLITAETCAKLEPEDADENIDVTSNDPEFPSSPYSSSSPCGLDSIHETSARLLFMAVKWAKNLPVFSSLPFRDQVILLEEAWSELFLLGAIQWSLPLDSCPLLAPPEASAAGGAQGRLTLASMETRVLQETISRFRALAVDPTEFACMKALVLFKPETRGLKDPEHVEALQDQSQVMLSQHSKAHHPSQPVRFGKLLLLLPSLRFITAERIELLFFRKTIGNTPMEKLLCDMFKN

CC(=O)NC(c1cccs1)c1cc([N+](=O)[O-])c2cccnc2c1O (stereo unspecified)
EC50 [1]: 46.7 µM (inconclusive)
EC50 [2]: 51.5 µM (active)
EC50 [3]: 0.757 µM (active)
EC50 [4]: > 350 µM (not active)
EC50 [5]: > 180 µM (inactive)
AC50 [6]: 4.94 µM (active)
EC50 [7]: > 150 µM (inactive)
IC50 [8]: 4.71 µM (active)

COc1ccc2ccccc2c1-c1sc(Nc2ccccc2)n[n+]1-c1ccc(F)cc1
EC50 [9]: 0.707 µM (active)
EC50 [10]: > 30 µM (not active)
AC50 [11]: 31.6 µM (active)

Cc1ccc(N2C(=O)CC(c3ccsc3)C3=C2CC(C)(C)CC3=O)cc1 (stereo unspecified)
EC50 [12]: > 112 µM (not active)
EC50 [13]: > 112 µM (not active)
AC50 [14]: 3.24 µM (active)
AC50 [15]: 3.55 µM (active)
AC50 [16]: 5.07 µM (active)
AC50 [17]: 18.9 µM (active)
AC50 [18]: 39.8 µM (inconclusive)

COc1ccc(NC(=O)C2CCCN2S(=O)(=O)c2ccc3c(c2)CCC(=O)N3)cc1Cl (stereo unspecified)
AC50 [14]: 7.43 µM (active)
AC50 [15]: 3.18 µM (active)
AC50 [16]: 14.8 µM (active)
AC50 [17]: 17.3 µM (active)
EC50 [19]: > 59.6 µM (inactive)
EC50 [20]: > 59.6 µM (inactive)

COc1ccc(/C=C2/SC(c3ccc(C)cc3)=NC2=O)cc1OC
IC50 [21]: > 59.6 µM (inactive)
IC50 [22]: > 59.6 µM (inactive)
EC50 [23]: 0.742 µM (active)

CC(C)C[C@@H](COc1ccccc1)N1CCN(Cc2ccccc2)CCC1=O
AC50 [11]: 33.5 µM (active)

CN(C)CCCNc1nc2cc(-c3ccc(F)cc3)sc2c(=O)n1C
AC50 [24]: 33.8 µM (active)
AC50 [25]: 7.84 µM (active)

CC(C)NC(=O)Nc1ccc2c(c1)C(=O)N([C@H](C)CO)C[C@H](C)[C@H](CN(C)S(=O)(=O)c1ccc(Cl)cc1)O2
AC50 [26]: 57.4 µM (active)
